Earlier results as cited in patent US20120214870A1, “METHODS FOR DIAGNOSIS AND TREATMENT OF CHRONIC FATIGUE SYNDROME” (UNIVERSITY OF SOUTH AUSTRALIA, priority 2009, published 2012).
“Also recorded” adds a separate entry of the source.

Tests used:
CPT-I = conditions: Yoon et al., 2003; Amengual et al., 2008

CC(=O)O[C@H](CC(=O)[O-])C[N+](C)(C)C [C2, acetyl-L-carnitine]
mental fatigue and attention concentration (CFS patients; supplementation (Vermeulen & Scholte, 2004; Malaguarnera et al. 2008)): significant improvements

CCC(=O)O[C@H](CC(=O)[O-])C[N+](C)(C)C [C3, propionyl-L-carnitine]
general and physical fatigue (CFS patients; administration (Vermeulen & Scholte, 2004)): significant improvements

C[N+](C)(C)C[C@H](O)CC(=O)[O-] [LC, L-carnitine]
fatigue severity in CFS patients (CFS patients; after 2 months of supplementation (Plioplys and Plioplys, 1997)): significantly reduce
CPT-I expression or activity (CPT-I): increase; also recorded: upregulate

CC1=C(/C=C/C(C)=C/C=C/C(C)=C/C(=O)O)C(C)(C)CCC1 [all-trans retinoic acid, reference compound]
CPT-I expression or activity (CPT-I): upregulate
